Values joined by “and” are separate entries in the source; they are usually repeats but may differ in a detail not shown here. Equal entries are not always repeated.
System: LNCaP tumor-transplanted mouse
Assay: Internal radioactivity distribution using LNCaP tumor-transplanted mouse
Type: in vivo
Outline: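 Biodistribution is given as percent injected dose per gram of tissue, measured in blood and organs harvested at time points from 1 h to 192 h. Radiotracers were given by tail-vein injection in saline at 185–259 kBq, n=2–3. Hosts were male CB17 SCID mice carrying LNCaP or PC-3 tumours implanted s.c. in Matrigel 40–60 days earlier.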

O=C([O-])CN(Cc1cccc(C(=O)[O-])n1)C[C@H](Cc1ccc(NC(=O)[C@H](CCCCNC(=O)CCC(=O)NCCCC[C@H](NC(=O)N[C@@H](CCC(=O)O)C(=O)O)C(=O)O)NC(=O)CCCc2ccc(I)cc2)cc1)N(CC(=O)[O-])Cc1cccc(C(=O)[O-])n1.[111In+3] [[^111In]In-Octapa-2]
Blood (1 h after administration): 14.4 ± 1.81 % ID/g
Brain (1 h after administration): 0.20 ± 0.03 % ID/g
Heart (1 h after administration): 3.98 ± 0.51 % ID/g
Intestine (1 h after administration): 1.55 ± 0.21 % ID/g
Kidney (1 h after administration): 121 ± 14.9 % ID/g
LNCaP Tumor (1 h after administration): 12.5 ± 0.26 % ID/g
Liver (1 h after administration): 2.75 ± 0.54 % ID/g
Lung (1 h after administration): 10.1 ± 1.34 % ID/g
Muscle (1 h after administration): 1.44 ± 0.24 % ID/g
Pancreas (1 h after administration): 1.73 ± 0.18 % ID/g
Spleen (1 h after administration): 18.5 ± 4.39 % ID/g
Stomach (% ID) (1 h after administration): 0.51 ± 0.22 % ID
Blood (4 h after administration): 6.73 ± 1.63 % ID/g
Brain (4 h after administration): 0.14 ± 0.02 % ID/g
Heart (4 h after administration): 1.89 ± 0.49 % ID/g
Intestine (4 h after administration): 1.65 ± 0.37 % ID/g
Kidney (4 h after administration): 177 ± 35.7 % ID/g
LNCaP Tumor (4 h after administration): 13.7 ± 3.24 % ID/g
Liver (4 h after administration): 1.67 ± 0.47 % ID/g
Lung (4 h after administration): 5.02 ± 0.89 % ID/g
Muscle (4 h after administration): 0.63 ± 0.19 % ID/g
Pancreas (4 h after administration): 1.59 ± 0.94 % ID/g
Spleen (4 h after administration): 13.2 ± 2.66 % ID/g
Stomach (% ID) (4 h after administration): 0.23 ± 0.02 % ID
Blood (24 h after administration): 0.84 ± 0.27 % ID/g
Brain (24 h after administration): 0.03 ± 0.01 % ID/g
Heart (24 h after administration): 0.33 ± 0.05 % ID/g
Intestine (24 h after administration): 0.82 ± 0.68 % ID/g
Kidney (24 h after administration): 55.3 ± 19.3 % ID/g
LNCaP Tumor (24 h after administration): 8.64 ± 2.27 % ID/g
Liver (24 h after administration): 0.33 ± 0.02 % ID/g
Lung (24 h after administration): 0.74 ± 0.12 % ID/g
Muscle (24 h after administration): 0.07 ± 0.02 % ID/g
Pancreas (24 h after administration): 0.19 ± 0.05 % ID/g
Spleen (24 h after administration): 1.97 ± 0.90 % ID/g
Stomach (% ID) (24 h after administration): 0.21 ± 0.15 % ID
Blood (48 h after administration): 0.26 ± 0.23 % ID/g
Brain (48 h after administration): 0.02 ± 0.01 % ID/g
Heart (48 h after administration): 0.18 ± 0.12 % ID/g
Intestine (48 h after administration): 0.68 ± 0.32 % ID/g
Kidney (48 h after administration): 22.4 ± 14.5 % ID/g
LNCaP Tumor (48 h after administration): 8.10 ± 2.67 % ID/g
Liver (48 h after administration): 0.32 ± 0.10 % ID/g
Lung (48 h after administration): 0.45 ± 0.18 % ID/g
Muscle (48 h after administration): 0.04 ± 0.05 % ID/g
Pancreas (48 h after administration): 0.13 ± 0.06 % ID/g
Spleen (48 h after administration): 1.13 ± 0.70 % ID/g
Stomach (% ID) (48 h after administration): 0.16 ± 0.14 % ID
Blood (96 h after administration): 0.01 ± 0.01 % ID/g
Brain (96 h after administration): 0.01 ± 0.00 % ID/g
Heart (96 h after administration): 0.07 ± 0.02 % ID/g
Intestine (96 h after administration): 0.45 ± 0.29 % ID/g
Kidney (96 h after administration): 3.27 ± 0.26 % ID/g
LNCaP Tumor (96 h after administration): 4.48 ± 0.78 % ID/g
Liver (96 h after administration): 0.22 ± 0.01 % ID/g
Lung (96 h after administration): 0.14 ± 0.08 % ID/g
Muscle (96 h after administration): 0.05 ± 0.02 % ID/g
Pancreas (96 h after administration): 0.06 ± 0.02 % ID/g
Spleen (96 h after administration): 0.61 ± 0.04 % ID/g
Stomach (% ID) (96 h after administration): 0.04 ± 0.02 % ID
Blood (192 h after administration): 0.01 ± 0.01 % ID/g
Brain (192 h after administration): 0.01 ± 0.01 % ID/g
Heart (192 h after administration): 0.06 ± 0.02 % ID/g
Intestine (192 h after administration): 0.27 ± 0.18 % ID/g
Kidney (192 h after administration): 1.76 ± 0.70 % ID/g
LNCaP Tumor (192 h after administration): 1.76 ± 0.45 % ID/g
Liver (192 h after administration): 0.20 ± 0.05 % ID/g
Lung (192 h after administration): 0.07 ± 0.02 % ID/g
Muscle (192 h after administration): 0.01 ± 0.01 % ID/g
Pancreas (192 h after administration): 0.08 ± 0.02 % ID/g
Spleen (192 h after administration): 0.44 ± 0.12 % ID/g
Stomach (% ID) (192 h after administration): 0.01 ± 0.01 % ID

O=C([O-])CN1CCN(C(CCC(=O)NCCC(=O)N2Cc3ccccc3-c3c(nnn3CCOCCOCCOCCOCCC(=O)NCCCC[C@H](NC(=O)N[C@@H](CCC(=O)O)C(=O)O)C(=O)O)-c3ccccc32)C(=O)[O-])CCN(CC(=O)[O-])CCN(C(CCC(=O)N[C@@H](CCCCNC(=O)CCCc2ccc(I)cc2)C(=O)O)C(=O)[O-])CC1.[111In+3] (stereo partly drawn) [[^111In]In-PtDA]
Blood (1 h after administration): 19.8 ± 2.74 % ID/g
Brain (1 h after administration): 0.36 ± 0.05 % ID/g
Heart (1 h after administration): 5.49 ± 0.77 % ID/g
Intestine (1 h after administration): 2.66 ± 0.28 % ID/g
Kidney (1 h after administration): 37.2 % ID/g and 37.2 ± 6.85 % ID/g
LNCaP Tumor (1 h after administration): 2.18 ± 0.17 % ID/g
Liver (1 h after administration): 3.51 ± 0.38 % ID/g
Lung (1 h after administration): 11.9 ± 1.57 % ID/g
Muscle (1 h after administration): 1.95 ± 0.30 % ID/g
Pancreas (1 h after administration): 2.31 ± 0.14 % ID/g
Spleen (1 h after administration): 15.3 ± 4.89 % ID/g
Stomach (% ID) (1 h after administration): 0.79 ± 0.19 % ID
Blood (24 h after administration): 12.5 ± 1.47 % ID/g
Brain (24 h after administration): 0.30 ± 0.05 % ID/g
Heart (24 h after administration): 3.95 ± 0.87 % ID/g
Intestine (24 h after administration): 1.52 ± 0.41 % ID/g
Kidney (24 h after administration): 68.0 ± 2.82 % ID/g
LNCaP Tumor (24 h after administration): 16.0 % ID/g and 16.0 ± 9.49 % ID/g
Liver (24 h after administration): 3.36 ± 0.77 % ID/g
Lung (24 h after administration): 8.63 ± 1.31 % ID/g
Muscle (24 h after administration): 1.28 ± 0.34 % ID/g
Pancreas (24 h after administration): 2.03 ± 0.48 % ID/g
Spleen (24 h after administration): 9.69 ± 0.92 % ID/g
Stomach (% ID) (24 h after administration): 0.46 ± 0.23 % ID
Blood (48 h after administration): 6.33 ± 1.53 % ID/g
Brain (48 h after administration): 0.20 ± 0.07 % ID/g
Heart (48 h after administration): 1.98 ± 0.41 % ID/g
Intestine (48 h after administration): 0.74 ± 0.28 % ID/g
Kidney (48 h after administration): 55.9 ± 6.39 % ID/g
LNCaP Tumor (48 h after administration): 18.7 % ID/g and 18.7 ± 5.21 % ID/g
Liver (48 h after administration): 2.28 ± 0.75 % ID/g
Lung (48 h after administration): 6.16 ± 1.56 % ID/g
Muscle (48 h after administration): 0.81 ± 0.40 % ID/g
Pancreas (48 h after administration): 1.12 ± 0.39 % ID/g
Spleen (48 h after administration): 10.5 ± 5.62 % ID/g
Stomach (% ID) (48 h after administration): 0.29 ± 0.20 % ID
